Among the data in a melting point compilation (Tetko et al.; mined from patent text by program, amines drawn as free bases though some values may be those of a salt) are melting point values, retold here.

Where only a bound is given, the exact number is not on record here.

`CCOC(=O)C1=C(C)NC(C)=C(C(=O)OCCN2CCN(C(c3ccc(C)cc3)c3ccc(C)cc3)CC2)C1c1ccc(C#N)cc1` (centres undefined) had a melting point of 93 to 96 °C. The result for `O=S(c1ncccn1)c1cccc2cccnc12` (centres undefined) reads 152 to 155 °C; that for `CCOC(=O)c1cc2nc(C)oc2nc1C(=O)OCC`, 101 to 103 °C; that for `CCOC(Cc1ccc(OCCOC2c3ccccc3CCc3ccccc32)cc1)C(=O)O` (centres undefined), 148 to 150 °C. With `CC(C)Oc1cccc2c1O[C@@H](COS(C)(=O)=O)CC2`, the melting point lay within 77 to 78 °C. The molecule `OC(CCc1cccc(Br)c1)c1cnc2sc3c(n12)CCCCC3` (centres undefined) registered a melting point of 137 to 141 °C. The result for `Cc1c[nH]c2cc(-c3nn(C(C)c4oc5ccccc5c(=O)c4-c4cccc(F)c4)c4ncnc(N)c34)ccc12` (centres undefined) reads 262 to 265 °C. `CCCN1C(=O)c2cnc(-c3ccccc3)nc2N(C(=O)CCl)c2ccccc21` had a melting point of 139 to 140 °C. For `CN1CC(CCN2CCN(c3ccccn3)CC2)c2nc3ccccc3n2C1=O` (centres undefined) the value was 158 to 159 °C.

Regarding `CC(=O)Nc1nc(NC(C)=O)nc(-c2ccc(-c3ccccc3)cc2)n1`, the melting point is > 260 °C. The result for `CCOC(=O)N1CCN(c2c(F)cc([N+](=O)[O-])c(F)c2COC)CC1` reads 85 to 86 °C; that for `CCOC(=O)CSCc1cccc(-c2c(CC(=O)Nc3ccc(F)cc3C(F)(F)F)c(=O)oc3cc(Cl)c(C)cc23)c1`, 106 to 108 °C; that for `CNC(=O)COC(=O)N1CCN(CCc2cc(-c3ccc(Cl)cc3)no2)CC1`, 130 to 132 °C. Turning to `COc1ccc2c(c1)C(C(=O)N(Cc1ccc(CO)cc1)c1ccc(C(C)C)cc1)CCC2` (centres undefined), the melting point was found to be 143 °C. For the molecule `O=C(NC=Cc1ccc(O)cc1)c1ccc(Cl)cc1`, the melting point was 243 to 244 °C. For `O=C(O)CCc1oc(-n2ccnc2-c2ccccc2)nc1-c1ccc(Cl)cc1` the value was 179 to 180 °C; for `N#Cc1ccc(S(=O)(=O)N2CCN(c3ccncc3)CC2)cc1`, 212 to 213 °C. `O=Cc1c2ccccc2c(C=O)c2cc(Cl)ccc12` returned a melting point of 192 to 195 °C. `O=C(OC[C@H]1CC(=O)[C@@H]1COC(=O)c1ccccc1)c1ccccc1` registered a melting point of 93 to 94 °C. For `Cc1cn(C(C)C(=O)N(C)C)nc1-c1ccc(Cl)c(Cl)c1` (centres undefined) the value was 109 to 110 °C; for `C=Cc1cc2cccnc2c(-c2cccc([N+](=O)[O-])c2)n1`, 145 to 151 °C. `NS(=O)(=O)c1cccc(C(=O)CCl)c1` showed a melting point of 118 °C.

In the case of `CCCc1c(OCCCOc2cccc(NC(=O)C(=O)OCC)c2)ccc(C(C)=O)c1O`, the melting point is 52 to 57 °C. Turning to `FC(F)(F)Oc1ccc2cnn(SC(Cl)(Cl)Cl)c2c1`, the melting point was 45 °C. The molecule `CCCn1nc2c(N)nc3ccccc3c2c1CC(C)C` gave a melting point of 199 to 200 °C. For `Cc1nc(N(C)C)sc1C(=O)c1ccc(N)c(N)c1` the value was 174 to 178 °C. The molecule `O=C1CCc2cc3[nH]c(-c4ccncc4)nc3cc2N1` gave a melting point of 285 to 288 °C. In turn, `COc1ccc2c(c1OCc1ccccc1)CCCC2=O` displayed a melting point of 64 °C.

`N#Cc1c(-c2ccc(Cl)cc2)[nH]c(C(F)(F)F)c1Cl` displayed a melting point of 242 to 243 °C. `CCN(CC)c1ccc(-c2cc(-c3ccc(C(=O)O)cc3)ccc2CCCNC(C)(C)C)cc1C(C)(C)C` returned a melting point of 273 °C. For `O=C1CN(C(=O)c2ccco2)c2ccccc2N1` the value was 229 to 230 °C; for `CCOC(c1ccccc1)(c1ccccc1)C(C)CNC` (centres undefined), 85 °C.

Regarding `CCCCNC(=O)c1c(N)cc(Cl)cc1Cl`, the melting point lay in the range of 92 to 98 °C.

For `CC12CCC3c4ccc(O)cc4C(CC(=O)O)CC3C1CC(O)C2O` (centres undefined), the melting point is 259 to 262 °C. `CS(=O)(=O)c1ccc(-c2cn[nH]c(=O)c2-c2ccc(F)cc2)cc1` had a melting point of 255 to 256 °C.

`OCC1OC(n2cnc3c(NCCc4c[nH]c5ccccc45)ncnc32)C(O)C1O` (centres undefined) yielded a melting point of 187 °C.

The molecule `CC(C)(C)c1ccc(CNC(=O)NCc2ccc(NS(C)(=O)=O)c([N+](=O)[O-])c2)cc1` came in with a melting point of 177 to 178 °C. The result for `CCN(CC)c1ccc(C2(c3c(C)n(CC)c4ccccc34)OC(=O)c3ccccc32)c(OC(C)C)c1` (centres undefined) reads 193 °C.

In turn, `CCn1cc(C(=O)O)c(=O)c2cc(F)c(N3CCNC(c4sc5ccc(Cl)cc5c4C)C3)cc21` (centres undefined) registered a melting point of 300 to 305 °C. `Cc1ccc(S(=O)(=O)Nc2cc3c(c(C(=O)O)c2)NCCO3)cc1` gave a melting point of 213 to 215 °C. With `COc1ccc(C(=O)NCc2ccc(CNC(=O)c3ccc(OC)cc3)cc2)cc1`, the melting point is 249 to 250 °C.

`O=c1[nH]c2cc(Cl)cc([N+](=O)[O-])c2[nH]c1=O` had a melting point of 315 to 317 °C.

For the molecule `Clc1ccc2nc(NCc3ccco3)nc(-c3ccccc3)c2c1`, the melting point stood at 142 °C. Take `CC(=O)N(O)Cc1ccccc1Nc1cccc(C)c1C`: the melting point lay within 93 to 98 °C. On to `O=C(O)c1ccc(N2C(=O)C3C4C=CC(C4)C3C2=O)cc1` (centres undefined), for which the melting point lay within 224 to 228 °C. As for `COC(=O)/C=C/c1ccc(OC)cc1N`, the melting point was determined as 149 °C. On to `Cc1cc(C)c2c(c1O)C(N1CCCC1)C1CCCCC21` (centres undefined), for which the melting point was in the range of 96 to 97 °C. The result for `Cc1nc(N2CCN(CC3CC3(F)F)C2=O)sc1-c1cc[nH]n1` (centres undefined) reads 227 to 230 °C; that for `CN(C)S(=O)(=O)c1ccc(-c2ccccc2)cc1S(=O)(=O)Cl`, 140 to 143 °C; that for `CCCc1nc2cncc(C)c2[nH]1`, 173 to 175 °C.

In turn, `CCCn1nc(C(C)C)c(C(=O)OC(C)OC(=O)OC2CCCCC2)c1Cc1ccc(-c2ccccc2-c2nnn[nH]2)cc1` (centres undefined) yielded a melting point of 79 to 83 °C. Take `COc1ccc(C=NS(=O)(=O)c2ccc(C)cc2)cc1`: the melting point stood at 127 °C. On to `COC(=O)c1c(C2CC2)nn2ccc3c(c12)CCO3`, for which the melting point lay in the range of 170 to 172 °C. With `COC(=O)CCCCc1csc(N=C2SC[C@@H]3Cc4ccccc4CN23)n1`, the melting point was found to be 92 °C. In turn, `NC(=NO)c1ccncc1` registered a melting point of 203 to 205 °C. The molecule `OCC(O)Cc1cc(Cl)c2ccccc2c1OCc1ccccc1` (centres undefined) registered a melting point of 69 to 71 °C. `C=CCCc1ccc(C(=O)O)c(O)n1` had a melting point of 151 to 155 °C.

`CCOP(=O)(OCC)C(O)=Cc1nn(-c2ccc(F)cc2)cc1-c1ccc(Cl)cc1`: the melting point lay in the range of 96 to 98 °C. On to `CN(O)C(=O)Nc1c(C(=O)c2cccc(Cl)c2)[nH]c2cc(Cl)ccc12`, for which the melting point was 205 to 206 °C.

In turn, `O=C(Nc1ccc2[nH]ccc2c1)C(=O)N1CCC(Cc2ccccc2)CC1` registered a melting point of 68 to 72 °C. `O=C1Nc2cc(F)c(F)cc2N2CCN(C(=O)OCc3ccccc3)CC12` (centres undefined) displayed a melting point of 226 to 228 °C. Regarding `COC(=O)Nc1nccc(Oc2ccc3c(C(=O)Nc4ccc(CN5CCN(C)CC5)c(C(F)(F)F)c4)csc3c2)n1`, the melting point lay in the range of 205 to 206 °C. On to `CCn1ncc2c1ncc1c(=O)[nH]c3nc(SC)nn3c12`, for which the melting point was > 300 °C. The molecule `CC(=O)N1CC(C)=NN(c2cc(Cl)c(Cc3ccc(Cl)cc3)c(Cl)c2)C1=O` showed a melting point of 101 to 102 °C.

As to `CN(C)C[C@H]1CCSc2ccccc2[C@]1(O)c1cccc(O)c1` (racemic), the melting point lay in the range of 188 to 190 °C.

Consider `CCCCCCCCCCCCCCCCS(=O)(=O)Nc1cccc2ccc(O)cc12`, for which the melting point is 104 to 107 °C. As for `CCCCCCCC(=O)NCCCCOS(C)(=O)=O`, the melting point fell in the range of 59 to 60 °C. Turning to `COc1cc2c(cc1OC)CCC(C(=O)O)=C2`, the melting point lay in the range of 191 to 194 °C. `CCOC(=O)NNC=Nc1nc(-c2ccc3c(c2)CCCC3)cs1`: the melting point was in the range of 134 to 135 °C. The result for `COc1ccccc1C(=O)c1cccc2c1ccn2C` reads 74 °C; that for `Cc1nc(N2CCN(Cc3cccc(C(F)(F)F)c3)C2=O)sc1-c1cc[nH]n1`, 209 to 214 °C. For the molecule `CCOc1cc(CCC(=O)O)ccc1OCCCc1cn(-c2ccc(C(F)(F)F)cn2)nc1OCC`, the melting point lay within 114 to 115 °C.

For `O=C(CC(CSc1nc2ccccc2s1)C(=O)NC1CCCCC1)NC1CCCCC1` (centres undefined), the melting point lay in the range of 147 to 149 °C. `FC(F)(F)c1cccc(CSc2nnc(-c3ccc4c(c3)CCO4)o2)c1` gave a melting point of 88 to 90 °C. Turning to `COc1ccc([C@H]2NC(SC)=N[C@H]2c2ccc(OC)cc2)cc1`, the melting point fell in the range of 132 to 134 °C. For `CCCC(=O)c1ccc2[nH]cc3c2c1CC(N(CCC)CCC)C3` (centres undefined), the melting point lay within 151 to 153 °C. The result for `CCCSc1nc[nH]n1` reads 53 to 56 °C. With `Cc1c(S(C)(=O)=O)c2cccc(Cl)c2n1CC1=NCCN1`, the melting point lay within 206 to 208 °C. Molecule `CN(C)C1CCC(Nc2nc3cc(Cl)c(Cl)cc3nc2-c2cccnc2)CC1` (centres undefined) came in with a melting point of 158 to 161 °C. Molecule `CN1C(=O)[C@@H](NC(=O)OC(C)(C)C)CCc2ccccc21` had a melting point of 132 to 134 °C. Turning to `CN(C)C(=O)COc1cc(Cl)ccc1C(=O)NCCN1CCN(CCc2ccccc2)CC1`, the melting point was 159 to 160 °C. Molecule `CC(=O)Nc1nc(CCc2ccc(N)cc2)c(C(=O)NCc2ccc(C(F)(F)F)cc2)s1` yielded a melting point of 199 to 201 °C. Turning to `CC1=C(C(=O)c2ccc(C(C)(C)C)cc2)C(=O)C2C=CC=CC2C1=O` (centres undefined), the melting point is 64 to 65 °C. `O=C(/C=C/c1cccc(S(=O)(=O)N2CCN(CC(c3ccccc3)c3ccccc3)CC2)c1)NO` registered a melting point of 117 °C. Take `O=C(O)CNC(=O)C(CSC(=O)c1ccccc1)SC(=O)c1ccccc1` (centres undefined): the melting point fell in the range of 160 to 163 °C. On to `COc1ccc(CN2Cc3cncn3C(c3ccc(C#N)cc3)C2=O)cc1` (centres undefined), for which the melting point lay within 155 to 157 °C. For `CCOC(=O)c1noc2ccccc12` the value was 53 to 55 °C.

For `CCOC(=O)CC(C)(O)c1ccc(-c2ccccc2)cc1` (centres undefined), the melting point was 58 to 60 °C. The result for `OCc1ccc(-c2ccc(-c3ccsc3)s2)s1` reads 158 to 160 °C.
